Measurements taken from US11840686B2, “Modulation of prekallikrein (PKK) expression” (Ionis Pharmaceuticals, Inc., priority 2013, dated 2023).
Strand notation (5' to 3'): a small letter for the sugar, then the base; units joined by * are phosphorothioate-linked, units joined directly phosphodiester-linked; [ ] holds rarer units or linkages, { } end groups; capitals alone tell only the bases. e = 2'-O-(2-methoxyethyl) (MOE); k = constrained ethyl (cEt); [5mC] = 5-methylcytosine; d = 2'-deoxy (DNA)

How the values were obtained:
human PKK mRNA [1] = assay: Antisense inhibition of human PKK mRNA in HepaRG cells, 1,000 nM, MOE/deoxy/cEt oligonucleotides (Example 3); assay type: cell-based
Method in brief: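 Readout is percent PKK mRNA reduction against untreated controls, by real-time PCR (RTS3454) adjusted for total RNA via RIBOGREEN. Oligonucleotides, phosphorothioate gapmers of 16 nucleosides with cEt, MOE and deoxy sugars, were delivered at 1,000 nM by electroporation to 20,000 HepaRG cells/well for roughly 24 h.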

human PKK mRNA [2] = assay: Dose-dependent antisense inhibition of human PKK in HepaRG cells, 0.11-3.00 uM (Example 6); assay type: cell-based; settings: for IC50: 0.11-3.00 μM; for percent inhibition of PKK mRNA, 0.11 μM / percent inhibition of PKK mRNA, 0.33 μM / percent inhibition of PKK mRNA, 1.00 μM / percent inhibition of PKK mRNA, 3.00 μM: electroporation, approx. 16 hours, relative to untreated control cells
Method in brief: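 Antisense oligonucleotides were tested over 0.11–3.00 μM, delivered by electroporation, with readout after roughly 16 h. Human PKK transcript was measured by real-time PCR (set RTS3454) and adjusted to RIBOGREEN total RNA, giving half-maximal inhibitory concentrations.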

[3] = Table 30, human PKK mRNA, HepaRG cells, 1,000 nM antisense oligonucleotide
[4] = HepaRG cells, electroporation with 1,000 nM antisense oligonucleotide, approximately 24 hours, primer probe set RTS3454, relative to untreated control cells, experiment of Table 23

Substance	% inhibition (human PKK mRNA [1]; [3]) [%]	IC50 (human PKK mRNA [2]) [nM]	percent inhibition of PKK mRNA, 0.11 μM (human PKK mRNA [2]) [%]	percent inhibition of PKK mRNA, 0.33 μM (human PKK mRNA [2]) [%]	percent inhibition of PKK mRNA, 1.00 μM (human PKK mRNA [2]) [%]	percent inhibition of PKK mRNA, 3.00 μM (human PKK mRNA [2]) [%]	% inhibition (human PKK mRNA [1]; Table 28, HepaRG cells, 1,000 nM antisense oligonucleotide, human PKK mRNA) [%]	% inhibition (human PKK mRNA [1]; HepaRG cells, electroporation with 1,000 nM antisense oligonucleotide, approximately 24 hours, primer probe set RTS3454, relative to untreated control cells, experiment of Table 24) [%]	% inhibition (human PKK mRNA [1]; [4]) [%]	% inhibition (human PKK mRNA [1]; Table 27, HepaRG cells, 1,000 nM antisense oligonucleotide, human PKK mRNA) [%]	% inhibition (human PKK mRNA [1]; Table 22 experiment, HepaRG cells, electroporation with 1,000 nM antisense oligonucleotide, approx. 24 hours, PKK mRNA by RT-PCR (RTS3454), relative to untreated control cells) [%]	% inhibition (human PKK mRNA [1]; Table 21 experiment, HepaRG cells, electroporation with 1,000 nM antisense oligonucleotide, approx. 24 hours, PKK mRNA by RT-PCR (RTS3454), relative to untreated control cells) [%]	% inhibition (human PKK mRNA [1]; HepaRG cells, electroporation with 1,000 nM antisense oligonucleotide, approx. 24 hours, PKK mRNA by RT-PCR (RTS3454), relative to untreated control cells, Table 25 experiment) [%]	% inhibition (human PKK mRNA [1]; HepaRG cells, 1,000 nM antisense oligonucleotide, Table 29) [%]
548422 (antisense eG*eT*kA*dT*d[5mC]*dA*d[5mC]*dT*dG*dT*d[5mC]*d[5mC]*dT*kA*kT*eA) [compound 548422]	69	700	0	32	71	93	–	–	–	–	–	–	–	–
548521 (antisense e[5mC]*eA*kG*d[5mC]*dT*d[5mC]*d[5mC]*d[5mC]*dT*dT*dA*d[5mC]*dT*kA*kG*eG) [compound 548521]	–	> 3000	21	0	3	1	61	–	–	–	–	–	–	–
548005 (eA*eG*kA*dG*dT*dA*dA*d[5mC]*d[5mC]*dA*dG*dA*dG*k[5mC]*kT*e[5mC]; antisense) [compound 548005]	–	400	53	49	71	95	–	77	–	–	–	–	–	–
547922 (eT*eG*kG*dA*dG*dT*dG*dA*dG*dA*dA*d[5mC]*d[5mC]*k[5mC]*kT*eG; antisense) [compound 547922]	–	–	67	75	81	92	–	–	79	–	–	–	–	–
548348 (antisense eT*eG*kA*dG*dT*dG*dA*dT*dG*d[5mC]*d[5mC]*dT*dT*k[5mC]*k[5mC]*eA) [compound 548348]	–	400	19	46	67	91	–	–	–	82	–	–	–	–
547857 (antisense e[5mC]*eT*k[5mC]*dA*dT*dA*dT*d[5mC]*dA*dA*d[5mC]*dT*d[5mC]*k[5mC]*kT*eT) [compound 547857]	–	200	36	66	77	93	–	–	–	–	84	–	–	–
547824 (e[5mC]*eG*kA*dT*dG*dT*dA*d[5mC]*dT*dT*dT*dT*dG*kG*k[5mC]*eA; antisense) [compound 547824]	–	–	45	73	78	–	–	–	–	–	–	82	–	–
547948 (eA*eG*kG*dA*dA*d[5mC]*dT*dT*dG*dG*dT*dG*dT*kG*k[5mC]*e[5mC]; antisense) [compound 547948]	–	–	60	80	88	97	–	–	77	–	–	–	–	–
548409 (antisense eG*eT*kA*dT*d[5mC]*dA*d[5mC]*dT*dG*dT*dA*d[5mC]*dT*kA*kG*eT) [compound 548409]	81	300	21	60	90	93	–	–	–	–	–	–	–	–
548201 (eT*eG*kT*dT*d[5mC]*dT*dA*dA*dT*dG*dT*dG*dG*k[5mC]*kA*e[5mC]; antisense) [compound 548201]	–	800	0	7	70	85	–	–	–	–	–	–	67	–
548583 (eG*eG*kG*dA*dA*dT*dT*dT*dA*dT*dG*d[5mC]*dT*kG*k[5mC]*e[5mC]; antisense) [compound 548583]	–	200	43	46	93	88	–	–	–	–	–	–	–	79
